Reference: patent US10561703B2, “Method of modulating sex hormone levels using a sex hormone secretion modulator” (GEMVAX & KAEL CO., LTD., priority 2013, dated 2020)

Tested on: FSH
Assay: FSH level in blood (serum CLIA) after repeated sc PEP-1
Format: in vivo, SD rats
Experimental: PEP-1 (peptide of SEQ ID NO: 1), lyophilized white powder, obtained according to the method mentioned in example 1 was dissolved in 0.9% of saline, considering the correction factor of PEP-1 (purity: 94.13%, content: 92.36%, correction factor: 1.15). 50 mg/mL stock solution was further diluted into 20 mg/mL, 2 mg/mL, and 1 mg/mL with 0.9% saline, and stored at 4° C. for a week until the use.
The purpose of this example is to confirm the change of sexual hormones in blood from SD rats with 7 days repeated daily administration of SEQ ID NO: 1 peptide, PEP-1. This experiment followed the Ethics Regulation of Animal Test by KAMSI Inc. (Korea Animal Medical Science Institute). In addition, this experiment, Non-GLP experiment, referred to the MFDS (Ministry of Food and Drug Safety) notification; Agent 2013-40 (5th April 2013), Principles of Good Laboratory Practice (1997).
SPF Rats (Crlj:CD(SD)) were purchased from ORIENTBio Inc. (Mokdong-ri, Buk-myeon, Gapyeong-gun, Gyeonggi-do, Republic of Korea). 75 male (6.5 weeks old and 190˜210 g) and 75 female (6.5 weeks old and 160˜180 g) rats were monitored for 4 days, and 64 of male and female rats (each) were selected for the experiment. Raising condition is as follows; 23±3° C. of temperature, […] of relative humidity, 10˜20 times/hr of number of air changes, 12 hours (8 a.m.˜8 p.m.) of lighting with 150˜300 Lux of intensity.
64 male and female […] (mentioned above) were divided into 8 groups. Administration regimen, for example, drugs, routes, dosages, and volumes were as follows:
The detailed administration regimen is as follows; once a day, twice a day and twice a week in each experimental group. Injection initiated at 10 a.m. every day, and each rat was injected at one minute intervals. Rats in Group 9, 10, 13 and 14 were injected twice a week. Administration of high dose test agent preceded that of low dose. The volume of injection was calculated using recently measured weight of rats, and it was 5 mL/kg. Subcutaneous injection was performed as follows; assistant tilted the back of rat upward, and experimenter sterilized the back of rat with 70% alcohol, followed by subcutaneous injection of test agent with 26 G syringe.
1.4 mL of blood sample (0.7 mL of serum) was collected after measurement of weight (Day 0). Next day (1 Day), 1.4 mL of blood sample (0.7 mL of serum) was collected twice after injection of test agent (4 hrs and 8 hrs after administration of test agent). For next 6 days (Day 2˜Day 7), 1.4 mL of blood was extracted once everyday (4 hours after injection of test agent). Dose and volume of test agent of each group followed the Table 3, and injection time zone was same every day. Blood was extracted from the jugular vein, and left at room temperature for 30 minutes. Serum was separated using centrifugation (10,000 rpm for 5 minutes), and stored at −70±5° C. in Deep freezer until the use. Blood extraction from each subject was done in the same time zone every day.
A CLIA (Chemi-Luminescence Immune Assay) Kit was used to analyze Testosterone, Estradiol E2, FSH (Follicle stimulating hormone), and LH (Luteinizing hormone). Analysis was completed within 48 hrs after blood extraction (Laboratory Medicine Department, Chung-Ang University Hospital), and detailed method is as follows; One-way ANOVA was used to verify the comparison between the vehicle and PEP-1, and between different doses of PEP-1. For further analysis, Duncan test was used as parametric test and Dunnett's test as non-parametric test. p<0.05 represents the statistical significance, and all statistical analysis was carried out with SPSS 10.1.
FSH was analyzed using the samples prepared from example 2. 100 μL of serum was used for analysis. Fundamentals of analysis is Two-site sandwich immunoassay based on direct chemi-luminescent. As mentioned in example 2, CLIA (Chemi-luminescence immune assay) Kit was used, following the manufacture's protocol.

For “EARPALLTSRLRFIPK (listed as Homo sapiens) [PEP-1, hormone secretion modulator / GnRH analog]”, the “FSH level in blood” value (G11 Male 100 mg/kg sc 1/day x7, 4 days) was 0.23 mIU/mL, the “FSH level in blood” value (G11 Male 100 mg/kg sc 1/day x7, 5 days) was 0.21 mIU/mL and the “FSH level in blood” value (G11 Male 100 mg/kg sc 1/day x7, 6 days) was 0.12 mIU/mL. The “FSH level in blood” value (G11 Male 100 mg/kg sc 1/day x7, 7 days) was 0.15 mIU/mL, the “FSH level in blood” value (G11 Male 100 mg/kg sc 1/day x7, pre) was 0.17 mIU/mL and the “FSH level in blood” value (G12 Female 100 mg/kg sc 1/day x7, 4 hr) was 0.23 mIU/mL. The “FSH level in blood” value (G12 Female 100 mg/kg sc 1/day x7, 8 hr) was 0.25 mIU/mL, the “FSH level in blood” value (G12 Female 100 mg/kg sc 1/day x7, 2 days) was 0.28 mIU/mL and the “FSH level in blood” value (G12 Female 100 mg/kg sc 1/day x7, 3 days) was 0.19 mIU/mL. For the same sequence, the “FSH level in blood” value (G12 Female 100 mg/kg sc 1/day x7, 4 days) was 0.15 mIU/mL, the “FSH level in blood” value (G12 Female 100 mg/kg sc 1/day x7, 5 days) was 0.21 mIU/mL and the “FSH level in blood” value (G12 Female 100 mg/kg sc 1/day x7, 6 days) was 0.1 mIU/mL. For the same sequence, the “FSH level in blood” value (G12 Female 100 mg/kg sc 1/day x7, 7 days) was 0.12 mIU/mL, the “FSH level in blood” value (G12 Female 100 mg/kg sc 1/day x7, pre) was 0.21 mIU/mL and the “FSH level in blood” value (G13 Male 100 mg/kg sc 2/week x2 (days 1,7), 4 hr) was 0.21 mIU/mL. For the same sequence, the “FSH level in blood” value (G13 Male 100 mg/kg sc 2/week x2 (days 1,7), 8 hr) was 0.23 mIU/mL, the “FSH level in blood” value (G13 Male 100 mg/kg sc 2/week x2 (days 1,7), 2 days) was 0.24 mIU/mL and the “FSH level in blood” value (G13 Male 100 mg/kg sc 2/week x2 (days 1,7), 3 days) was 0.19 mIU/mL. The “FSH level in blood” value (G13 Male 100 mg/kg sc 2/week x2 (days 1,7), 4 days) was 0.26 mIU/mL, the “FSH level in blood” value (G13 Male 100 mg/kg sc 2/week x2 (days 1,7), 5 days) was 0.37 mIU/mL and the “FSH level in blood” value (G13 Male 100 mg/kg sc 2/week x2 (days 1,7), 6 days) was 0.19 mIU/mL. For the same sequence, the “FSH level in blood” value (G13 Male 100 mg/kg sc 2/week x2 (days 1,7), 7 days) was 0.14 mIU/mL, the “FSH level in blood” value (G13 Male 100 mg/kg sc 2/week x2 (days 1,7), pre) was 0.38 mIU/mL and the “FSH level in blood” value (G14 Female 100 mg/kg sc 2/week x2 (days 1,7), 4 hr) was 0.48 mIU/mL. The “FSH level in blood” value (G14 Female 100 mg/kg sc 2/week x2 (days 1,7), 8 hr) was 0.4 mIU/mL, the “FSH level in blood” value (G14 Female 100 mg/kg sc 2/week x2 (days 1,7), 2 days) was 0.23 mIU/mL and the “FSH level in blood” value (G14 Female 100 mg/kg sc 2/week x2 (days 1,7), 3 days) was 0.17 mIU/mL. For the same sequence, the “FSH level in blood” value (G14 Female 100 mg/kg sc 2/week x2 (days 1,7), 4 days) was 0.14 mIU/mL, the “FSH level in blood” value (G14 Female 100 mg/kg sc 2/week x2 (days 1,7), 5 days) was 0.24 mIU/mL and the “FSH level in blood” value (G14 Female 100 mg/kg sc 2/week x2 (days 1,7), 6 days) was 0.17 mIU/mL. The “FSH level in blood” value (G14 Female 100 mg/kg sc 2/week x2 (days 1,7), 7 days) was 0.22 mIU/mL, the “FSH level in blood” value (G14 Female 100 mg/kg sc 2/week x2 (days 1,7), pre) was 0.17 mIU/mL and the “FSH level in blood” value (G15 Male 250 mg/kg sc 1/day x7, 4 hr) was 0.26 mIU/mL. The “FSH level in blood” value (G15 Male 250 mg/kg sc 1/day x7, 8 hr) was 0.35 mIU/mL, the “FSH level in blood” value (G15 Male 250 mg/kg sc 1/day x7, 2 days) was 0.44 mIU/mL and the “FSH level in blood” value (G15 Male 250 mg/kg sc 1/day x7, 3 days) was 0.12 mIU/mL. For the same sequence, the “FSH level in blood” value (G15 Male 250 mg/kg sc 1/day x7, 4 days) was 0.23 mIU/mL, the “FSH level in blood” value (G15 Male 250 mg/kg sc 1/day x7, 5 days) was 0.25 mIU/mL and the “FSH level in blood” value (G15 Male 250 mg/kg sc 1/day x7, 6 days) was 0.1 mIU/mL. For the same sequence, the “FSH level in blood” value (G15 Male 250 mg/kg sc 1/day x7, 7 days) was 0.12 mIU/mL, the “FSH level in blood” value (G15 Male 250 mg/kg sc 1/day x7, pre) was 0.38 mIU/mL and the “FSH level in blood” value (G16 Female 250 mg/kg sc 1/day x7, 4 hr) was 0.27 mIU/mL. For the same sequence, the “FSH level in blood” value (G16 Female 250 mg/kg sc 1/day x7, 8 hr) was 0.3 mIU/mL, the “FSH level in blood” value (G16 Female 250 mg/kg sc 1/day x7, 2 days) was 0.34 mIU/mL and the “FSH level in blood” value (G16 Female 250 mg/kg sc 1/day x7, 3 days) was 0.20 mIU/mL. For the same sequence, the “FSH level in blood” value (G16 Female 250 mg/kg sc 1/day x7, 4 days) was 0.12 mIU/mL, the “FSH level in blood” value (G16 Female 250 mg/kg sc 1/day x7, 5 days) was 0.19 mIU/mL and the “FSH level in blood” value (G16 Female 250 mg/kg sc 1/day x7, 6 days) was 0.18 mIU/mL. The “FSH level in blood” value (G16 Female 250 mg/kg sc 1/day x7, 7 days) was 0.08 mIU/mL, the “FSH level in blood” value (G16 Female 250 mg/kg sc 1/day x7, pre) was 0.19 mIU/mL and the “Change in FSH level compared to baseline” value (male and female, Day 1, 4 hr and 8 hr post injection, in particular high doses (G11 to G16)) was “slight increase”.
